Data reported in patent publication US11572344B2, “Cyanoaryl-aniline compounds for treatment of dermal disorders” (NFlection Therapeutics, Inc., priority 2018, dated 2023).

Key:
MEK1 = MEK1 (Homo sapiens (Human), UniProt Q02750); experiment: MEK Inhibition Assay-2 (Z′-LYTE biochemical assay); details: Z′-LYTE assay of Example 39; read-out: IC50 against MEK1
Procedure: MEK1 inhibitory activity of compounds were tested using the following procedure (protocol available at thermofisher.com/content/dam/LifeTech/migration/files/drug-discovery/pdfs.par.60256.file.dat/20130430%20ssbk %20customer %20protocol %20and %20assa y %20conditions.pdf). The Z′-LYTE biochemical assay (ThermoFisher) employs a fluorescence-based, coupled-enzyme format and is based on the differential sensitivity of phosphorylated and non-phosphorylated peptides to proteolytic cleavage.
Test compounds in 100% DMSO were screened in 1% DMSO (final) in the well. For 10 point titrations, 3-fold serial dilutions are conducted from the starting concentration of 30 μM.
After the 1 hour incubation, 5 μL of a 1:1024 dilution of Development Reagent A (available from Invitrogen, catalog no. PV3295) was added.
ATP solutions were diluted to a 4× working concentration in Kinase Buffer (50 mM HEPES pH 7.5, 0.01% BRIJ-35, 10 mM MgCl2, 1 mM EGTA). ATP Km apparent was previously determined using a Z′-LYTE assay. The Development Reagent was diluted in Development Buffer (available from Invitrogen, catalog no. P3127).
Assay Protocol: 2.5 μL of 4× test compound or 100 nL of 100× Test Compound plus 2.4 μL Kinase Buffer, 5 μL of the 2× Peptide/Kinase Mixture, 2.5 μL of 4×ATP Solution were added to the plates and placed on a shake plate for 30-seconds. The kinase reaction was allowed to proceed for 60-minute at room temperature, before 5 μL of Development Reagent Solution was added, and the mixture agitated for 30-seconds on a shake plate. The mixture was incubated for 60-minute at room temperature. Fluorescence was measured using a plate reader and the data were analyzed.
This control yielded 100% cleaved peptide in the Development Reaction. The 100% Phosphorylation Control, which consisted of a synthetically phosphorylated peptide of the same sequence as the peptide substrate, was designed to allow for the calculation of percent phosphorylation. This control yielded a very low percentage of cleaved peptide in the Development Reaction. The 0% Phosphorylation and 100% Phosphorylation Controls allow for the calculation of the percent phosphorylation achieved in a specific reaction well.
The minimum emission ratio in a screen was established by the 0% Inhibition Control, which contained active kinase. This control was designed to produce a 10-50% phosphorylated peptide in the Kinase Reaction. Cascade assays may produce up to 70% phosphorylated peptide.
A known inhibitor control standard curve, 10 point titration, was run for each individual kinase on the same plate as the kinase to ensure the kinase was inhibited within an expected IC50 range previously determined.
The following controls are prepared for each concentration of Test Compound assayed. […] The expected value for a non-interfering compound should be 100%. Any value outside of 90% to 110% was flagged. […] The expected value for a non-fluorescence compound should be 0%. Any value>20% was flagged.
The data in Table A was calculated. XLfit from IDBS was used. The dose response curve was curve fit to model number 205 (sigmoidal dose-response model).
Table 3 lists the MEK1 inhibition assay results of selected compounds according to the above procedure.

[1] = Liver S9 half-life stability assay; type: in vitro ADME; details: human, liver S9 fraction, pH 7.4; 1 μM test compound, 2 mg/mL liver protein, 1 mM NADPH; read-out: Assay 4: liver S9 half-life
Procedure: Compounds can be assessed for metabolic stability in human skin by assessing their rate of disappearance from human S9 skin fraction. Similarly, compounds can be assessed for metabolic stability in human liver by assessing their rate of disappearance from human S9 liver fraction. The protocol below is used to assess the difference between skin and hepatic metabolism.
The assay was carried out in 96-well microtiter plates at 37° C. Reaction mixtures (25 μL) contained a final concentration of 1 μM test compound, 2 mg/mL liver or skin protein, and 1 mM NADPH in buffer (100 mM potassium phosphate, pH 7.4 buffer with 1 mM EDTA, 3 mM MgCl2). At each of the time points (0, 15, 30, and 60 minutes), 150 μL of quench solution (100% acetonitrile with 0.1% formic acid) with internal standard was transferred to each well. Besides the zero minute controls, mixtures containing the same components except the NADPH were also prepared as the negative control. Verapamil or testosterone was included as a positive control to verify assay performance. Plates were sealed and centrifuged at 4° C. for 15 minutes at 4000 rpm. The supernatant was transferred to fresh plates for LC/MS/MS analysis.
All samples were analyzed on LC/MS/MS using an AB Sciex API 4000 instrument, coupled to a Shimadzu LC-20AD LC Pump system. Analytical samples were separated using a Waters Atlantis T3 dC18 reverse phase HPLC column (20 mm×2.1 mm) at a flow rate of 0.5 mL/min. The mobile phase consisted of 0.1% formic acid in water (solvent A) and 0.1% formic acid in 100% acetonitrile (solvent B).
The extent of metabolism was calculated as the disappearance of the test compound, compared to the 0-min control reaction incubations. Initial rates were calculated for the compound concentration and used to determine t1/2 values and subsequently, the intrinsic clearance, CLint=(0.693) (1/t1/2 (min)) (mL incubation/mg of S9 protein).
Assay 4 is the liver S9 half-life stability assay as described in Example 42. A4 indicates a half life of greater than 50 min and less than or equal to 200 min and B4 indicates a half life of less than or equal to 50 minutes.

A375 cells = experiment: A375 (BRAF) GI50 cell-based assay (Cell Titer-Glo); details: Homo sapiens, A-375, 72 hours, read-out: Assay 2: A375 (BRAF) GI50
Procedure: (§1) Alternatively, the following procedure can be used to measure cell-based activity. Test compounds were dissolved in DMSO in 10 mM stock. Cell Titer-Glo® 2.0 Luminescent cell viability assay reagent was purchased from Promega (Madison, Wis.). A375 and HCT116 cell lines were purchased from American Type Culture Collection (Manassas, Va.). For A375 cells, cell culture media was DMEM+10% FBS. For HCT116 cells, cell culture media was McCoy's 5A+10% FBS. All media were supplemented with 100 μg/mL of penicillin, and 100 μg/mL of streptomycin. Cultures were maintained at 37° C. in a humidified atmosphere of 5% CO2 and 95% air.
(§2) Test compounds were diluted in DMSO solution with 10-dose and 3-fold dilutions in a source plate starting at 10 mM. 25 nL of each test compound was delivered from the source plate to each well of the 384-well cell culture plates (T=Final) by Echo 550. 25 μL of culture medium containing 2000 of A375 or HCT116 cells was added to each of the wells in duplicates of the cell culture plates (T=0 and T=Final). 25 μL of Cell Titer Glo 2.0 reagent was added to each well of cell culture plate (T=0). The contents were mixed on an orbital shaker for 2 min and incubated at room temperature for 15 min to stabilize luminescent signal. Luminescence was recorded by Envision 2104 Multilabel Reader (PerkinElmer, Santa Clara, Calif.). The number of viable cells in culture was determined based on quantitation of the ATP present in each culture well. The cells in cell culture plate (T=Final) were incubated with the compounds at 37° C., 5% CO2 for 72 hours. 25 μL of Cell Titer Glo 2.0 reagent was added to each well. The contents were mixed on an orbital shaker for 2 min and incubated at room temperature for 15 min to stabilize luminescent signal. Luminescence was recorded by Envision 2104 Multilabel Reader (PerkinElmer, Santa Clara, Calif.). The number of viable cells in culture was determined based on quantitation of the ATP present in each culture well. The GI50 curves were plotted using the GraphPad Prism 4 program based on a sigmoidal dose-response equation Y=Bottom+(Top-Bottom)/(1+10^((Log EC50−X)*HillSlope)). All parameters in the equation were calculated by GraphPad Prism 4 program. […] Accordingly, GI50 is the value of 10^X, where X was calculated by the Curve Fitting Equation when Y=50 using Excel.
Assay 2 is the A375 (BRAF) GI50 (nM) cell-based assay as described in Example 41.

HCT116 cells = experiment: HCT116 (Kras) GI50 cell-based assay (Cell Titer-Glo); details: Homo sapiens, HCT-116, 72 hours, read-out: Assay 3: HCT116 (Kras) GI50
Procedure: as §1, §2
Assay 3 is the HCT116 (Kras) GI50 (nM) assay as described in Example 41.

[2] = systemic MEK inhibitor; cited from earlier work

Sequence of MEK1 (Q02750 whole entry): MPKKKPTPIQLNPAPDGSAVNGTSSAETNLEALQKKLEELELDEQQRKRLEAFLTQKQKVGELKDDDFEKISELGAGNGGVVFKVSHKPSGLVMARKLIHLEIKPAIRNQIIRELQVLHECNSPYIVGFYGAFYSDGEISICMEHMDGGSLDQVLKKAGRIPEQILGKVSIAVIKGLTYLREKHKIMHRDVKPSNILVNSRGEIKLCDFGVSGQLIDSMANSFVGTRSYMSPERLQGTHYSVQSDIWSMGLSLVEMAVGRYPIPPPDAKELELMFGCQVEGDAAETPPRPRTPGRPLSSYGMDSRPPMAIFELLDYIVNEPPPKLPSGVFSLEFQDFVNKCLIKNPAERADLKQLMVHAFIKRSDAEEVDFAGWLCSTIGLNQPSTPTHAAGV

| SMILES | IC50 (MEK1) [µM] | half-life at 1 μM [1] [min] | other results |
| --- | --- | --- | --- |
| CCONC(=O)c1ccc(C#N)cc1Nc1ccc(I)cc1F [Compound 1.008] | – | ≤ 50 | GI50 (A375 cells): 0.5 to 1.5 µM; GI50 (HCT116 cells): 0.75 to 2 µM |
| CCCONC(=O)c1ccc(C#N)cc1Nc1ccc(I)cc1F [Compound 1.009] | – | ≤ 50 | – |
| COC(=O)CCONC(=O)c1ccc(C#N)cc1Nc1ccc(I)cc1F [Compound 1.022, Methyl 3-((4-cyano-2-((2-fluoro-4-iodophenyl)amino)benzamido)oxy) propanoate] | > 1.5 | – | – |
| O=C(NOC[C@H](O)CO)c1ccc(F)c(F)c1Nc1ccc(I)cc1F [PD0325901] | – | – | side effects in clinical trials [2]: neurological side effects associated with ataxia, confusion, and syncope |

Now from value to molecule, other results behind:

| IC50 (MEK1) [µM] | half-life at 1 μM [1] [min] | SMILES | other results |
| --- | --- | --- | --- |
| > 1.5 | – | N#Cc1ccc(C(=O)NC2CC2)c(Nc2ccc(I)cc2F)c1 [Compound 1.005] | – |
| – | ≤ 50 | CONC(=O)c1ccc(C#N)cc1Nc1ccc(I)cc1F [Compound 1.007] | GI50 (A375 cells): 0.5 to 1.5 µM; GI50 (HCT116 cells): 0.75 to 2 µM |
| ≤ 0.15 | – | N#Cc1ccc(C(=O)NO)c(Nc2ccc(I)cc2F)c1 [Compound 1.017, 4-Cyano-2-((2-fluoro-4-iodophenyl)amino)-N-hydroxybenzamide] | – |
